Results on 31 compounds are retold here after patent publication US11261201B2 (priority 2018, dated 2022).

The subject of test [1] is A. baumannii. The test is described as follows: Gram negative MIC protocol (OD600, LB, 24 h). Particulars: Acinetobacter baumannii.
Protocol: (§1) Overnight bacterial cultures were grown in LB with no added antibiotics at 37° C. with shaking. A 1:1000 dilution of these cultures into LB was exposed to concentration gradients of compounds in 96-well plates (100 μL per well assay volume). Resulting plates were incubated at 37° C. for 24 h without shaking, and OD600 was measured at the end of the incubation. MICs were determined as the lowest concentrations at which OD600 remained at baseline.
For test [2], the system named is H37RvMA. The test is described as follows: Tuberculosis Alamar Blue/Resazurin assay (MIC). The class given is cell-based. Particulars: Mycobacterium tuberculosis, H37RV, read-out: WT H37Rv MTB Activity. Background: Alamar Blue is a resazurin reagent that responds to reducing activity.
In test [3] the test system is E. coli. The test is described as follows: Gram negative MIC protocol (OD600, LB, 24 h). Particulars: Escherichia coli.
Protocol: as §1
Where [4] appears, read: read-out: MIC A. baumannii LB Media, A. baumannii, LB media, 24 h, OD600.
Setting [5] is: read-out: MIC E. coli delta-TolC LB Media, E. coli delta-TolC, LB media, OD600.
[6] abbreviates: read-out: MIC WT E. coli LB Media, WT E. coli, LB media, OD600.
Where [7] appears, read: read-out: MIC E. coli delta-TolC LB Media, E. coli delta-TolC strain, LB media, 24 h, OD600.
The mark [8] stands for this setting: read-out: MIC WT E. coli LB Media, wild-type E. coli, LB media, 24 h, OD600.

Values after ≈ are worked out from the molar mass of the structure shown. Where a name gives a salt, the structure may show the parent alone. Read-outs that look alike come from different tables or passages of the source.

For the compound `COc1cc(CC(C)NCc2ccccc2)ncn1` (stereo not shown) [B84], the MIC in test [1] (setting [4]), in test [2], in test [3] (setting [5]) and in test [3] (setting [6]) was over 150 µM each time.
For the compound `CC(CNCc1ccccc1)C1CCCCC1` (stereo not shown) [B103], the MIC in test [1] (setting [4]) was over 150 µM; in test [2] (WT H37Rv MTB) it was over 150 µM; in test [3] (setting [5]) it was 150 µM (≈ 34.7 µg/mL); in test [3] (setting [6]), 150 µM (≈ 34.7 µg/mL).
Turning to `CC(Cc1ncccn1)NCc1ccccc1` (stereo not shown) [B82], the MIC in test [1] (setting [4]), in test [2], in test [3] (setting [5]) and in test [3] (setting [6]) was over 150 µM throughout.
For the compound `NCc1cccc(CNCCC2CCCCC2)c1` [B355], the MIC in test [1] (setting [4]), in test [2] (WT H37Rv MTB), in test [3] (setting [7]) and in test [3] (setting [8]) was over 150 µM in each case.
As to `CC(CC1CC1)NCc1ccccc1` (stereo not shown) [B34], the MIC in test [1] (setting [4]), in test [2] (WT H37Rv MTB), in test [3] (setting [5]) and in test [3] (setting [6]) was over 150 µM throughout.
As to `c1ccc(CNCCc2cccc3c2NCCC3)cc1` [B105], the MIC in test [1] (setting [4]) is over 150 µM; in test [2] (WT H37Rv MTB), 91 µM (≈ 24.2 µg/mL); in test [3] (setting [5]) it was over 150 µM; in test [3] (setting [6]) it was over 150 µM.
With `C[C@H](NCc1ccccc1)[C@@H]1C[C@H]1c1ccccc1` [B86], the MIC in test [1] (setting [4]), in test [2] (WT H37Rv MTB), in test [3] (setting [5]) and in test [3] (setting [6]) was over 150 µM throughout.
As to `c1ccc(CNCCC2CCOCC2)cc1` [B25], the MIC in test [1] (setting [4]), in test [2] (WT H37Rv MTB), in test [3] (setting [5]) and in test [3] (setting [6]) was over 150 µM each time.
`CC(CC1CCCCC1)NCc1ccccc1Oc1ccccc1F` (stereo not shown) [B405, 1-cyclohexyl-N-(2-(2-fluorophenoxy)benzyl)propan-2-amine]: the MIC is 150 µM (≈ 51.2 µg/mL) in test [1] (setting [4]), 33.4 µM (≈ 11.4 µg/mL) in test [2] (WT H37Rv MTB), 5 µM (≈ 1.71 µg/mL) in test [3] (setting [5]) and 91 µM (≈ 31.1 µg/mL) in test [3] (setting [6]).
For `C[C@H](NCc1ccccc1)C1CCCc2ccccc21` (stereo partly shown) [B113] the same measures were over 150 µM, over 150 µM, over 150 µM and over 150 µM.
For `c1ccc(CNC2CCC2c2ccccc2)cc1` (stereo not shown) [B176] the same measures were over 300 µM, over 150 µM, over 300 µM and over 300 µM.
In the same order, the values of `CC(CC1CCCCC1)NCc1cccc2ccn(CC(=O)O)c12` (stereo not shown) [B436, 2-(7-(((1-cyclohexylpropan-2-yl)amino)methyl)-1H-indol-1-yl)acetic acid hydrochloride] are over 150 µM, over 150 µM, 91 µM and over 150 µM.
As for `OB1OCc2ccc(CNCc3ccccc3)cc21` [B158, 6-((benzylamino)methyl)benzo[c][1,2]oxaborol-1(3H)-ol], the MIC in test [1] (setting [4]), in test [2] (WT H37Rv MTB), in test [3] (setting [5]) and in test [3] (setting [6]) was over 150 µM throughout.
With `CC1=C(C)CC(CC(C)NCc2ccccc2)CC1` (stereo not shown) [B162, N-benzyl-1-(3,4-dimethylcyclohex-3-en-1-yl)propan-2-amine], the MIC in test [1] (setting [4]) was over 150 µM; in test [2] (WT H37Rv MTB) it was over 150 µM; in test [3] (setting [5]), 300 µM (≈ 77.2 µg/mL); in test [3] (setting [6]), over 500 µM.
In the case of `c1ccc(CNCC2(c3ccc4c(c3)OCO4)CC2)cc1` [B18], the MIC in test [1] (setting [4]), in test [2], in test [3] (setting [5]) and in test [3] (setting [6]) was over 150 µM each time.
On to `CC(CC1CCCCC1)NCc1ccccc1OC1CCC1` (stereo not shown) [B385, N-(2-cyclobutoxybenzyl)-1-cyclohexylpropan-2-amine], for which the MIC stood at 150 µM (≈ 45.2 µg/mL) in test [1] (setting [4]), 90.9 µM (≈ 27.4 µg/mL) in test [2] (WT H37Rv MTB), 2 µM (≈ 0.603 µg/mL) in test [3] (setting [7]) and 91 µM (≈ 27.4 µg/mL) in test [3] (setting [8]).
For `c1ccc(CNC2CCCCC2)cc1` [B7], the MIC in test [1] (setting [4]), in test [2] (WT H37Rv MTB), in test [3] (setting [5]) and in test [3] (setting [6]) was over 150 µM throughout.
Consider `c1cc(CNCCC2CCCCC2)c2sccc2c1` [B354], for which the MIC in test [1] (setting [4]) is over 150 µM; in test [2] (WT H37Rv MTB) it was 150 µM (≈ 41 µg/mL); in test [3] (setting [7]), 150 µM (≈ 41 µg/mL); in test [3] (setting [8]), over 150 µM.
`CC(NCc1ccccc1)C1CC2CCC1CC2` (stereo not shown) [B62]: the MIC in test [1] (setting [4]), in test [2] (WT H37Rv MTB), in test [3] (setting [5]) and in test [3] (setting [6]) was over 150 µM throughout.
Consider `c1coc(-c2ccccc2CNCCC2CCCCC2)c1` [B236, 2-cyclohexyl-N-(2-(furan-2-yl)benzyl)ethanamine hydrochloride], for which the MIC was found to be 300 µM in test [1] (setting [4]), 150 µM in test [2] (WT H37Rv MTB), 17 µM in test [3] (setting [7]) and 54 µM in test [3] (setting [8]).
For the compound `CCC1CCCCC1Oc1ccccc1CNC(C)CC1CCCCC1` (stereo not shown) [B392, 1-cyclohexyl-N-(2-((2-ethylcyclohexyl)oxy)benzyl)propan-2-amine], the MIC in test [1] (setting [4]) is 150 µM (≈ 53.6 µg/mL); in test [2] (WT H37Rv MTB), 33.4 µM (≈ 11.9 µg/mL); in test [3] (setting [7]) it was 7 µM (≈ 2.5 µg/mL); in test [3] (setting [8]) it was over 150 µM.
For `CC(CC1CCCCC1)NCc1ccccc1OCC(O)C(C)C` (stereo not shown) [B342] the same measures were 150 µM (≈ 50 µg/mL), 91 µM (≈ 30.3 µg/mL), 4 µM (≈ 1.33 µg/mL) and 150 µM (≈ 50 µg/mL).
In the same order, the values of `c1ccc(CNCCC2CCCNC2)cc1` (stereo not shown) [B224] are over 300 µM, over 150 µM, over 150 µM and over 300 µM.
In the same order, the values of `COCCOc1ccccc1CNC(C)CC1CCCCC1` (stereo not shown) [B294] are over 150 µM, over 150 µM, 7 µM (≈ 2.14 µg/mL) and over 150 µM.
Consider `CC(CC1CCCCC1)NCc1ccccc1OCCOC1CCCC1` (stereo not shown) [B260], for which the MIC in test [1] (setting [4]) is over 150 µM; in test [2] (WT H37Rv MTB) it was 91 µM (≈ 32.7 µg/mL); in test [3] (setting [7]), 7 µM (≈ 2.52 µg/mL); in test [3] (setting [8]) it was over 150 µM.
`CC(CC1CCCCC1)NCc1ccccc1OCCOCC1CC1` (stereo not shown) [B261]: the MIC was over 150 µM in test [1] (setting [4]), 150 µM (≈ 51.8 µg/mL) in test [2] (WT H37Rv MTB), 4 µM (≈ 1.38 µg/mL) in test [3] (setting [7]) and over 150 µM in test [3] (setting [8]).
Regarding `CC(CC1CCCCC1)NCc1ccccc1OC1CC2CCC1CC2` (stereo not shown) [B395, N-(2-(bicyclo[2.2.2]octan-2-yloxy)benzyl)-1-cyclohexylpropan-2-amine], the MIC in test [1] (setting [4]) was 33 µM (≈ 11.7 µg/mL); in test [2] (WT H37Rv MTB), 20.2 µM (≈ 7.18 µg/mL); in test [3] (setting [7]) it was 3 µM (≈ 1.07 µg/mL); in test [3] (setting [8]), over 150 µM.
`CC(CC1CCCCC1)NCc1ccccc1CS(=O)(=O)N[C@H]1C[C@H](C(=O)O)C1` (stereo partly drawn) [B456, (1S,3S)-3-(((2-(((1-cyclohexylpropan-2-yl)amino)methyl)phenyl)methyl)sulfonamido)cyclobutane-1-carboxylic acid]: the MIC in test [1] (setting [4]) is over 150 µM; in test [2] (WT H37Rv MTB) it was over 150 µM; in test [3] (setting [5]), 33 µM (≈ 13.9 µg/mL); in test [3] (setting [6]) it was over 150 µM.
As for `COC(=O)CCc1ccccc1CNC(C)CC1CCCCC1` (stereo not shown) [B400, methyl 3-(2-((1-cyclohexylpropan-2-ylamino)methyl)phenyl)propanoate hydrochloride], the MIC in test [1] (setting [4]) was over 150 µM; in test [2] (WT H37Rv MTB) it was over 150 µM; in test [3] (setting [5]) it was 55 µM; in test [3] (setting [6]) it was over 150 µM.
As for `C[C@@H](CC1CCCCC1)NCc1ccccc1` [B94], the MIC was 91 µM (≈ 21.1 µg/mL) in test [1] (read-out: MIC A. baumannii LB Media), over 150 µM in test [2], 7 µM (≈ 1.62 µg/mL) in test [3] (setting [5]) and 17 µM (≈ 3.93 µg/mL) in test [3] (setting [6]).
As for `c1ccc(CNCC2CCCc3ccccc32)cc1` (stereo not shown) [B127], the MIC in test [1] (setting [4]) was over 150 µM; in test [2] (WT H37Rv MTB), 150 µM (≈ 37.7 µg/mL); in test [3] (setting [5]) it was over 150 µM; in test [3] (setting [6]), over 150 µM.
